“Also recorded” adds a separate entry of the source. Ends that are not written are not given here.
Assays:
[1] = tested on: isolated rat ventricular cardiomyocytes; format: cell-based; conditions: for effect on calcium transient amplitudes: FIG. 25, field-stimulated (1 Hz) isolated rat ventricular cardiomyocytes; for increase in the calcium transient amplitude over control cells, functional equivalence compared to S100A1ct6/11: FIG. 26, 2 Hz, peptides added 30 min before assessment
RyR2 = target: T1, RyR2 (Oryctolagus cuniculus, UniProt P30957); assay: Ca2+-spark frequency in permeabilized cardiomyocytes; format: cell-based, rabbit
T1 construct: Adult ventricular rabbit cardiomyocytes were isolated from four different animals; endogenous in cells; host or cells: adult ventricular rabbit cardiomyocytes, permeabilized with beta-escin
Experimental: Adult ventricular rabbit cardiomyocytes were isolated from four different animals as previously described (Loughrey C. M. et al., 2004, J. Physiol. 556:919-934) and permeabilized using β-escin (0.1 mg/ml). The permeabilized cells were incubated for 1 minute with rhodamine-labeled human S100A1 protein (0.1 μM) or FITC-labeled S100A1 C-terminal 20-mer peptide (0.1 μM) fused to a hydrophilic element (i.e. amino acids 75 to 94 of human S100A1 fused to the hydrophilic element D-K-D-D-P-P (SEQ ID NO: 17)). Cells were monitored using a Bio-Rad 2000 laser scanning confocal microscope (LSCM). A striated staining pattern can be observed that resembles the ryanodine staining pattern (FIG. 4).
Furthermore, Ca^2+-spark frequency has been assessed in the permeabilized cells treated with S100A1 protein or the S100A1 C-terminal 20-mer peptide fused to a hydrophilic element and it was shown that both, the full-length protein as well as the C-terminal fragment, decrease calcium spark frequency in permeabilized cardiomyocytes (FIGS. 5 and 6). […] Fluo-3 free acid (10 μM) present in the perfusing solution was excited at 488 nm (Kr-laser) and measured at >515 nm applying epifluorescence optics of an inverted microscope with a ×60-1.2 NA water-immersion objective lens. Fluorescence was acquired in line scan mode at 2 ms line^−1; pixel dimension was 0.3 μm (512 pixels scan^−1; zoom=1.4). […]

[2] = tested on: permeabilized EDL murine skeletal muscle fibers; assay: Isometric twitch force in permeabilized skeletal muscle fibers; format: cell-based, mouse
Experimental: Muscle Fiber Preparation and Experimental Solutions. All of the animals were handled according to the guidelines of the animal care committee of the University of Heidelberg. Male BALB/c mice (3-6-months-old) were sacrificed by an overdose of carbon dioxide, and muscle fiber preparation was carried out as previously described (Fink R. H. and Stephenson D. G., 1987, Pflugers Arch. Eur. J. Physiol. 409:374-380; Makabe M. et al., 1996, Pflugers Arch. Eur. J. Physiol. 432: 717-726). Either EDL (M. ext. dig. longum) or Soleus was isolated, and a small fiber bundle containing two to four single fibers (between 80 and 150 μm in diameter and 3-4-mm-long) was dissected in paraffin oil. […] The free ion concentrations were calculated with the computer program REACT (version 2.0) from G. L. Smith (Glasgow, Scotland). […]
It was shown that both, the full-length S100A1 protein as well as the C-terminal fragment, has a potency to enhance isometric twitch force in permeabilized murine skeletal muscle fibers (FIG. 7). […] Maximum force was measured in the high activating solution at pCa 4.28 and 5 mM caffeine. […] Several control transients were recorded before the fiber was exposed to the S100A1 protein or the S100A1 peptide mixture (N/H/C) or the C-terminal 20-mer alone, and the experiment was repeated as outlined above. […]

[3] = tested on: adult intact cardiomyocytes or skeletal muscle fibers; assay: Calcium homeostasis in adult intact cardiomyocytes or skeletal muscle fibers; format: cell-based; conditions: adult intact (non-permeabilized) cardiomyocytes or skeletal muscle fibers

T1 sequence (P30957 whole entry): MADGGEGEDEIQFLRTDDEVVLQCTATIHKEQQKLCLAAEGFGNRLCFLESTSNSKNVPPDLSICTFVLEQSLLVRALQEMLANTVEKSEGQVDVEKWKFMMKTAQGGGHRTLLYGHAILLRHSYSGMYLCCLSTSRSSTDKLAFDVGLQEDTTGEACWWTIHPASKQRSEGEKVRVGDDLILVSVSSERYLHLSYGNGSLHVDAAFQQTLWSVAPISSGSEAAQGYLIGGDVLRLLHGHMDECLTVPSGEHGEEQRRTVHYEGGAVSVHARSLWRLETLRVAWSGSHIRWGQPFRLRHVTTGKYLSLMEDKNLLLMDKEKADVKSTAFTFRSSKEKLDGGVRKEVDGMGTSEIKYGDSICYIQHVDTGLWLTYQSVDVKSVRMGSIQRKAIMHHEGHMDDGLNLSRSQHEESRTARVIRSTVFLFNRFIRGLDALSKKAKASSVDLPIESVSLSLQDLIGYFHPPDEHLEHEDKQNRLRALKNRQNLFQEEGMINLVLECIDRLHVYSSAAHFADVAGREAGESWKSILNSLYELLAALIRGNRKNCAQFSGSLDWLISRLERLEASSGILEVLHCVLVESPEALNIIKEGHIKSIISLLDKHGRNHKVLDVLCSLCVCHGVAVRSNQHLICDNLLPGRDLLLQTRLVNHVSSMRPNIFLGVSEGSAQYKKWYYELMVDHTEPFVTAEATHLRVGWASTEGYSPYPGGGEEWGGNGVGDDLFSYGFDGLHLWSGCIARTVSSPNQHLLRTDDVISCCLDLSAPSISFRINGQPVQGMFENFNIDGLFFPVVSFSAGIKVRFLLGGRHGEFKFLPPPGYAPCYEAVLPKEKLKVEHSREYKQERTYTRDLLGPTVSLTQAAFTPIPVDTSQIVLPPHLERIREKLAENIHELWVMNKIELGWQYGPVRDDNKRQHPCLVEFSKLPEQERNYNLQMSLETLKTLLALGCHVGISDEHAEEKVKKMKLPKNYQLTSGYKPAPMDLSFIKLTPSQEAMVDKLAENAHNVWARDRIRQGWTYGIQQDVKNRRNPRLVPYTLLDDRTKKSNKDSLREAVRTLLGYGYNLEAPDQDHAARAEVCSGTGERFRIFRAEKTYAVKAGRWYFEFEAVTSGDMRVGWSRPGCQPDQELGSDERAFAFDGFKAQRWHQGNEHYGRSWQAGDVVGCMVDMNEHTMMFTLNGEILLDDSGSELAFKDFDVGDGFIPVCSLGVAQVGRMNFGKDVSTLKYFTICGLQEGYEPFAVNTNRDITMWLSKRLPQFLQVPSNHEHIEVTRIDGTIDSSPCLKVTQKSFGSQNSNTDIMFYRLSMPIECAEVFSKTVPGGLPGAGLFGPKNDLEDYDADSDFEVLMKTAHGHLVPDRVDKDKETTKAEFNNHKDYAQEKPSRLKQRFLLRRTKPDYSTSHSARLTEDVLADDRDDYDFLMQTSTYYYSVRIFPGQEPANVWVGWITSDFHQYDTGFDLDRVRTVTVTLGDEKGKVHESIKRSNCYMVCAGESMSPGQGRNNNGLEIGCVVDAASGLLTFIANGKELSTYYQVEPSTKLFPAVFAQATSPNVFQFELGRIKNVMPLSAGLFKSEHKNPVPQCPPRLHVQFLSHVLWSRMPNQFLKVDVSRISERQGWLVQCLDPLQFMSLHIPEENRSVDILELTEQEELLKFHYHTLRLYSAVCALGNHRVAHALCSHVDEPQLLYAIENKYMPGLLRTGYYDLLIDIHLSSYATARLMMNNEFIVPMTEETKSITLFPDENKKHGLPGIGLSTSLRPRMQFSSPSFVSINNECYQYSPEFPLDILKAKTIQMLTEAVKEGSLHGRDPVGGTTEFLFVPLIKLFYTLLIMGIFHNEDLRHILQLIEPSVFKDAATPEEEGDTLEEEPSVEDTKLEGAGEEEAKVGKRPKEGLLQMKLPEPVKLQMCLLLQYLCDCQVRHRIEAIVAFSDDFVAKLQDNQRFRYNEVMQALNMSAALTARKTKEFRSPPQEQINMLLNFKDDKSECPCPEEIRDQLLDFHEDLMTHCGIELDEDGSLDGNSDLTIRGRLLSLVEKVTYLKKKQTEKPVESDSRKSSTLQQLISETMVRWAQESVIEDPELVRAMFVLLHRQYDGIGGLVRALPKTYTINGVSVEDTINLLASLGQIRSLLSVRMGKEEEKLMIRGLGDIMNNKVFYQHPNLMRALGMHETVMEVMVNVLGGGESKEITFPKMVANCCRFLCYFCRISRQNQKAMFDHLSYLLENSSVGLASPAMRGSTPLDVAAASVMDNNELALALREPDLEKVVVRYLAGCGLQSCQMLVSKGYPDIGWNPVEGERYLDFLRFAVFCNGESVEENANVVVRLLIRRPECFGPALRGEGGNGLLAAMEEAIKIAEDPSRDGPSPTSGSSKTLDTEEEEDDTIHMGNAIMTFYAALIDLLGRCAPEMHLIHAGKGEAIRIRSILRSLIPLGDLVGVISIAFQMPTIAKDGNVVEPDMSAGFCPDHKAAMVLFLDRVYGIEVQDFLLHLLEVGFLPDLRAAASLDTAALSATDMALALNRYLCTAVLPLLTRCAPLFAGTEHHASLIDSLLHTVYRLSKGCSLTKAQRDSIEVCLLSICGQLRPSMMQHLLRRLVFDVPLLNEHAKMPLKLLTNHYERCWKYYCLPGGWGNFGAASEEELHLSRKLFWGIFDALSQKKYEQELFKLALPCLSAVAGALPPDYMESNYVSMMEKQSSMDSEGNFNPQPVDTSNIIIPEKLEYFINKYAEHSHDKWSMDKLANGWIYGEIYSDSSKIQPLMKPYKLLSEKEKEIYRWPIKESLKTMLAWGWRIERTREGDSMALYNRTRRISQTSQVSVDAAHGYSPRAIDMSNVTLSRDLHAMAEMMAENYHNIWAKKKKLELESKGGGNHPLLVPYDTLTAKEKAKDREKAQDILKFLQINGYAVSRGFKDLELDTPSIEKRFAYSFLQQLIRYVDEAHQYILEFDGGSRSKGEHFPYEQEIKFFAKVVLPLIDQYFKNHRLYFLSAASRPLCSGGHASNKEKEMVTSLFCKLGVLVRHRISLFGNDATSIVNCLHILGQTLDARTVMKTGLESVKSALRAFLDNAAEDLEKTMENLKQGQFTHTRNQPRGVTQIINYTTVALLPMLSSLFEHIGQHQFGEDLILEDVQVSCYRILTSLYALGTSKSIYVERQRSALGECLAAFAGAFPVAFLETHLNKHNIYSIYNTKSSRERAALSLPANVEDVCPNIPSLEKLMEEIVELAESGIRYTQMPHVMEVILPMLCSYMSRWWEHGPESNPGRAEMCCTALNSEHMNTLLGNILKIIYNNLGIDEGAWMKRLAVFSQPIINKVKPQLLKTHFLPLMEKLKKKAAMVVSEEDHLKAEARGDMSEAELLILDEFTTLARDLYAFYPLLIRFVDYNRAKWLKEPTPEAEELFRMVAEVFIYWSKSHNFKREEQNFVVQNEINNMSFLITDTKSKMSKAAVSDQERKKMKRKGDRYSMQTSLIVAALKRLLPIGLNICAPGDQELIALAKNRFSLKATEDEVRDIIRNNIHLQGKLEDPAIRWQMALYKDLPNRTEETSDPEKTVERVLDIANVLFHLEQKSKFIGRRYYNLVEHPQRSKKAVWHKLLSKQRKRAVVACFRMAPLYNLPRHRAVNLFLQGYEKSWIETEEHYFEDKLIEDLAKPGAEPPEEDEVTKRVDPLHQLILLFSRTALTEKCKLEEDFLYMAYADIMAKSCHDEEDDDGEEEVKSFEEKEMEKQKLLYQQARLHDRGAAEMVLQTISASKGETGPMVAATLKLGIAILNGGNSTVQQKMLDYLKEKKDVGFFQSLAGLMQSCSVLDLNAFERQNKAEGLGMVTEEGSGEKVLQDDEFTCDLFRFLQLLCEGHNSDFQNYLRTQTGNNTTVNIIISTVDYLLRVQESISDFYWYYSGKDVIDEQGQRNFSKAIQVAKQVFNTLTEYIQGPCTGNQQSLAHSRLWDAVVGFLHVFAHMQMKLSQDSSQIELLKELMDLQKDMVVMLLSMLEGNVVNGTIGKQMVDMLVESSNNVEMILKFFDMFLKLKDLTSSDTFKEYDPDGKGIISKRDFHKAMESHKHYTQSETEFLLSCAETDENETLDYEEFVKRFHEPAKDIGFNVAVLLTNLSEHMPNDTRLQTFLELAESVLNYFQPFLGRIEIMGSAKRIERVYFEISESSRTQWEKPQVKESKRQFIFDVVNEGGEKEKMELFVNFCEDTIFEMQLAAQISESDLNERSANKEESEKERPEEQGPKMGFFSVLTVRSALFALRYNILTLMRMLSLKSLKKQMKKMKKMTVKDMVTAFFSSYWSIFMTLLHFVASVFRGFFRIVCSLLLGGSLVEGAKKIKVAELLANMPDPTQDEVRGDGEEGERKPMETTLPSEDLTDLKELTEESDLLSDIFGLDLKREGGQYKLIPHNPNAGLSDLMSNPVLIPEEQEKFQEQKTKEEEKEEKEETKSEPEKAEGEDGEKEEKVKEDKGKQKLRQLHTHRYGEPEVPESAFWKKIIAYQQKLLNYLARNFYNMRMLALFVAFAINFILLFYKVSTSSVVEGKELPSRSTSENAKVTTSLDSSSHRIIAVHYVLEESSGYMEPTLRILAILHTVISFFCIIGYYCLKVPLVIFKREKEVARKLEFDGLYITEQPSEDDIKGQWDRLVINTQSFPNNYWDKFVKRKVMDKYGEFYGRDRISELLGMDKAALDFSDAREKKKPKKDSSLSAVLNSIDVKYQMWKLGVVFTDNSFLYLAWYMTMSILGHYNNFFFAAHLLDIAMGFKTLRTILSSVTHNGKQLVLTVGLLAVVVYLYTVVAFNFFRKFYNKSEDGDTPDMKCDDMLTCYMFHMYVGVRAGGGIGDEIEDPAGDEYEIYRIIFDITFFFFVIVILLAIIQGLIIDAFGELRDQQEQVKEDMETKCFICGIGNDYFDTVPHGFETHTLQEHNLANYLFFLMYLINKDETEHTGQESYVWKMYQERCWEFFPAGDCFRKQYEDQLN

Row | Substance | effect on calcium transient amplitudes [1] | increase in the calcium transient amplitude over control cells, functional equivalence compared to S100A1ct6/11 [1] | also measured
1 | D-K-D-D-P-P (DKDDPP; hydrophilic motif) [hydrophobic element, 6-mer hydrophilic motif tested alone as control, reference compound] | do not exhibit the inotropic effect |  | 
2 | D-K-D-D-P-P-L-V-A-A-L-T-V-A (DKDDPPLVAALTVA) [N-78-85-C] | abolishes the inotropic effect |  | 
3 | D-K-D-D-P-P-V-A-A-L-T-V-A (DKDDPPVAALTVA; Functional peptide (Fig. 26)) [79-85] | abolishes the inotropic effect | partial functional equivalence | 
4 | D-K-D-D-P-P-V-L-V-A-A-L-T-V-A (DKDDPPVLVAALTVA; Functional peptide (Fig. 26)) [77-85] | abolishes the inotropic effect | partial functional equivalence | 
5 | D-K-D-D-P-P-V-V-L-V-A-A-L (DKDDPPVVLVAAL; Functional peptide (Fig. 26)) [76-82] |  | partial functional equivalence | 
6 | D-K-D-D-P-P-V-V-L-V-A-A-L-T (DKDDPPVVLVAALT; Functional peptide (Fig. 26)) [76-83] |  | partial functional equivalence | 
7 | D-K-D-D-P-P-V-V-L-V-A-A-L-T-V (DKDDPPVVLVAALTV; Functional peptide (Fig. 26)) [76-84] |  | full functional equivalence | 
8 | DKDDPPYVVLVAALTVA [S100A1ct6/11, D-K-D-D-P-P-Y-V-V-L-V-A-A-L-T-V-A (SEQ ID NO: 42)] |  |  | EC50 [1]: 87 ± 6 nM
9 | S100A1 protein: native human S100A1 protein, 94 amino acids, SEQ ID NO: 38; recombinant, rhodamine-labeled for imaging |  |  | diastolic calcium spark frequency and RyR2 activity (RyR2): decreases; isometric twitch force [2]: enhances; also recorded: equivalent biological potency to enhance isometric force; calcium homeostasis [3]: does not alter
10 | YVVLVAALTVACNNFFWENS (SEQ ID NO: 39) (YVVLVAALTVACNNFFWENS; amino acids 75 to 94 of human S100A1) [20-mer S100A1 C-terminal peptide, amino acids 75-94 of human S100A1, reference compound] |  |  | diastolic calcium spark frequency and RyR2 activity (RyR2): decreases; isometric twitch force [2]: enhances; also recorded: equivalent biological potency to enhance isometric force; calcium homeostasis [3]: does not alter

Source: patent US9453053B2, “Short peptides for enhancing muscle function” (UNIVERSITAT HEIDELBERG, priority 2010, dated 2016)
